The record followed here is US20230340011A1 (Asteroid Therapeutics, priority 2022, published 2023).

pEC50, pIC50: −log10 of the molar value.

LXRβ, sequence (P55055 whole entry, the tested form may be a part): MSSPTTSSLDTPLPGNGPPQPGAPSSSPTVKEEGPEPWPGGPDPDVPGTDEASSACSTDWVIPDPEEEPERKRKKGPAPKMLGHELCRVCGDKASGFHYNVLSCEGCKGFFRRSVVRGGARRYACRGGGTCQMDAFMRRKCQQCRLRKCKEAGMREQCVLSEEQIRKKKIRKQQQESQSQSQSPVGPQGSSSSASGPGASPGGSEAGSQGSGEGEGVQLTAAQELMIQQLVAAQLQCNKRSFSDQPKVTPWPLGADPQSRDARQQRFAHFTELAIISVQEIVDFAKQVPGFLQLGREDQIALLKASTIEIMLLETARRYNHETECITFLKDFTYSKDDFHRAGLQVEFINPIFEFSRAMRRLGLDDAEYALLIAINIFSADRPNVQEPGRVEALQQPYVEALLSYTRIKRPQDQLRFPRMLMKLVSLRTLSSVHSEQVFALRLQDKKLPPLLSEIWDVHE

The target in one assay is LXRβ (Homo sapiens (Human), UniProt P55055). As to the kind of experiment: In vitro assay LXRβ: PathHunter NHR CHO cells, LXRβ / Steroid Receptor Co-activator Peptide enzyme fragment complementation. It is filed as cell-based. Particulars: PathHunter NHR CHO cells, full-length human LXRβ and SRCP, chemiluminescent signal; read-out: LXRβ PPI. The method, then:
PathHunter NHR CHO cells stably transfected with tagged full-length human LXRβ and a nuclear fusion protein containing Steroid Receptor Co-activator Peptide (SRCP). The full-length human LXRβ was tagged with the ProLink™ component of the DiscoverX Enzyme Fragment Complementation (EFC) system and the SRCP domain is fused to the enzyme acceptor component (EA) expressed in the nucleus. Cells were seeded in a total volume of 20 μL into white walled, 384-well microplates and incubated at 37° C. overnight prior to testing. Assay media contained charcoal-dextran filtered serum to reduce the level of hormones present. Final assay vehicle concentration was 1%. […] Microplates were read following signal generation with a PerkinElmer Envision instrument for chemiluminescent signal detection.
Consider `CC(=O)N1CCN(C(=O)CC[C@@H](C)[C@H]2CC[C@H]3[C@@H]4CC=C5C[C@@H](O)CC[C@]5(C)[C@H]4CC[C@]23C)C[C@@H]1C` [Example 277, (R)-1-((S)-4-acetyl-3-methylpiperazin-1-yl)-4-((3S,8S,9S,10R,13R,14S,17R)-3-hydroxy-10,13-dimethyl-2,3,4,7,8,9,10,11,12,13,14,15,16,17-tetradecahydro-1H-cyclopenta[a]phenanthren-17-yl)pentan-1-one], for which the pEC50 was under 5.00.
On the same count and under the same terms, the figure for `C[C@H](CCC(=O)N1O[C@@H]2C[C@H]1[C@@H](O)[C@H]2O)[C@H]1CC[C@H]2[C@@H]3CC=C4C[C@@H](O)CC[C@]4(C)[C@H]3CC[C@]12C` [Example 55, (R)-1-((1R,4S,5R,6R)-5,6-dihydroxy-2-oxa-3-azabicyclo[2.2.1]heptan-3-yl)-4-((3S,8S,9S,10R,13R,14S,17R)-3-hydroxy-10,13-dimethyl-2,3,4,7,8,9,10,11,12,13,14,15,16,17-tetradecahydro-1H-cyclopenta[a]phenanthren-17-yl)pentan-1-one] is under 5.00; for `C[C@H](CCC(=O)N1CCC(Oc2cnccn2)CC1)[C@H]1CC[C@H]2[C@@H]3CC=C4C[C@@H](O)CC[C@]4(C)[C@H]3CC[C@]12C` [Example 220, (R)-4-((3S,8S,9S,10R,13R,14S,17R)-3-hydroxy-10,13-dimethyl-2,3,4,7,8,9,10,11,12,13,14,15,16,17-tetradecahydro-1H-cyclopenta[a]phenanthren-17-yl)-1-(4-(pyrazin-2-yloxy)piperidin-1-yl)pentan-1-one] it is 5.00 to 6.00.
For `CC(=O)N1CCN(C(=O)CC[C@@H](C)[C@H]2CC[C@H]3[C@@H]4CC=C5C[C@@H](O)CC[C@]5(C)[C@H]4CC[C@]23C)[C@@H](C)C1` [Example 428, (4R)-4-[(1R,3aS,3bS,7S,9aR,9bS,11aR)-7-hydroxy-9a,11a-dimethyl-1H,2H,3H,3aH,3bH,4H,6H,7H,8H,9H,9aH,9bH,10H,11H,11aH-cyclopenta[a]phenanthren-1-yl]-1-[(2S)-4-acetyl-2-methylpiperazin-1-yl]pentan-1-one], the pEC50 was under 5.00.
On to `C[C@H](CCC(=O)N1CCN(c2ccccn2)CC1)[C@H]1CC[C@H]2[C@@H]3CC=C4C[C@@H](O)CC[C@]4(C)[C@H]3CC[C@]12C` [Example 307, (R)-4-((3S,8S,9S,10R,13R,14S,17R)-3-hydroxy-10,13-dimethyl-2,3,4,7,8,9,10,11,12,13,14,15,16,17-tetradecahydro-1H-cyclopenta[a]phenanthren-17-yl)-1-(4-(pyridin-2-yl)piperazin-1-yl)pentan-1-one], for which the pEC50 was under 5.00.
Take `C[C@H](CCC(=O)N1CCC(OC(F)F)CC1)[C@H]1CC[C@H]2[C@@H]3CC=C4C[C@@H](O)CC[C@]4(C)[C@H]3CC[C@]12C` [Example 252, (R)-1-(4-(difluoromethoxy)piperidin-1-yl)-4-((3S,8S,9S,10R,13R,14S,17R)-3-hydroxy-10,13-dimethyl-2,3,4,7,8,9,10,11,12,13,14,15,16,17-tetradecahydro-1H-cyclopenta[a]phenanthren-17-yl)pentan-1-one]: the pEC50 is under 5.00.
Consider `C[C@H](CCC(=O)N(C)CCc1ccccn1)[C@H]1CC[C@H]2[C@@H]3CC=C4C[C@@H](O)CC[C@]4(C)[C@H]3CC[C@]12C` [Example 293, (4R)-4-[(1R,3aS,3bS,7S,9aR,9bS,11aR)-7-hydroxy-9a,11a-dimethyl-1H,2H,3H,3aH,3bH,4H,6H,7H,8H,9H,9aH,9bH,10H,11H,11aH-cyclopenta[a]phenanthren-1-yl]-N-methyl-N-[2-(pyridin-2-yl)ethyl]pentanamide], for which the pEC50 is 6.00 to 6.60.
Still for that read-out and setting: to `C[C@H](CCC(=O)N1CCC(Oc2ccncn2)CC1)[C@H]1CC[C@H]2[C@@H]3CC=C4C[C@@H](O)CC[C@]4(C)[C@H]3CC[C@]12C` [Example 221, (4R)-4-[(1R,3aS,3bS,7S,9aR,9bS,11aR)-7-hydroxy-9a,11a-dimethyl-1H,2H,3H,3aH,3bH,4H,6H,7H,8H,9H,9aH,9bH,10H,11H,11aH-cyclopenta[a]phenanthren-1-yl]-1-[4-(pyrimidin-4-yloxy)piperidin-1-yl]pentan-1-one] belongs 5.00 to 6.00.
For the compound `C[C@H](CCC(=O)N(C)C)[C@H]1CC[C@H]2[C@@H]3CC=C4C[C@@H](O)C[C@H](O)[C@]4(C)[C@H]3CC[C@]12C` [Example 123, (R)-4-((1S,3R,8S,9S,10R,13R,14S,17R)-1,3-dihydroxy-10,13-dimethyl-2,3,4,7,8,9,10,11,12,13,14,15,16,17-tetradecahydro-1H-cyclopenta[a]phenanthren-17-yl)-N,N-dimethylpentanamide], the pEC50 was 5.00 to 6.00.
In the case of `C[C@H](CCC(=O)N1CCN(C(=O)OCCO)CC1)[C@H]1CC[C@H]2[C@@H]3CC=C4C[C@@H](O)CC[C@]4(C)[C@H]3CC[C@]12C` [Example 281, 2-hydroxyethyl 4-[(4R)-4-[(1R,3aS,3bS,7S,9aR,9bS,11aR)-7-hydroxy-9a,11a-dimethyl-1H,2H,3H,3aH,3bH,4H,6H,7H,8H,9H,9aH,9bH,10H,11H,11aH-cyclopenta[a]phenanthren-1-yl]pentanoyl]piperazine-1-carboxyla], the pEC50 is under 5.00.
In the case of `C[C@H](CCC(=O)N(C)OC1CCCC1)[C@H]1CC[C@H]2[C@@H]3CC=C4C[C@@H](O)CC[C@]4(C)[C@H]3CC[C@]12C` [Example 61, (R)-4-((3S,8S,9S,10R,13R,14S,17R)-3-hydroxy-10,13-dimethyl-2,3,4,7,8,9,10,11,12,13,14,15,16,17-tetradecahydro-1H-cyclopenta[a]phenanthren-17-yl)-N-(methyl)-N-cyclopentoxypentanamide], the pEC50 is 5.00 to 6.00.

The target of a further assay is SREBP-2 (Homo sapiens (Human), UniProt Q12772). Kind of assay: In vitro assay SREBP-2: PathHunter U2OS SREBP-2 Nuclear Translocation Cell Line, U18666A-stimulated. The assay is classed as cell-based. Conditions: PathHunter U2OS SREBP-2 nuclear translocation cells, U18666A 10 μM, overnight (16 hours).
Take `C[C@H](COc1ccc(CO)cn1)[C@H]1CC[C@H]2[C@@H]3CC=C4C[C@@H](O)CC[C@]4(C)[C@H]3CC[C@]12C` [Example 445, (3S,8S,9S,10R,13S,14S,17R)-17-((S)-1-((5-(hydroxymethyl)pyridin-2-yl)oxy)propan-2-yl)-10,13-dimethyl-2,3,4,7,8,9,10,11,12,13,14,15,16,17-tetradecahydro-1H-cyclopenta[a]phenanthren-3-ol]: the pIC50 – broadly, −log10 of the IC50, conventionally taken in molar units – is 6.00 to 6.60.
The same measure, in the same setting: to `Cc1ncccc1O[C@@H](C)[C@H]1CC[C@H]2[C@@H]3CC=C4C[C@@H](O)CC[C@]4(C)[C@H]3CC[C@]12C` [Example 430, (1S,3aS,3bS,7S,9aR,9bS,11aS)-9a,11a-dimethyl-1-[(1S)-1-[(2-methylpyridin-3-yl)oxy]ethyl]-1H,2H,3H,3aH,3bH,4H,6H,7H,8H,9H,9aH,9bH,10H,11H,11aH-cyclopenta[a]phenanthren-7-ol] belongs 6.00 to 6.60; to `C[C@H](CCC(=O)N(C)C)[C@H]1CC[C@H]2[C@@H]3CC=C4C[C@H](O)CC[C@]4(C)[C@H]3CC[C@]12C` [Example 122, (R)-4-((3R,8S,9S,10R,13R,14S,17R)-3-hydroxy-10,13-dimethyl-2,3,4,7,8,9,10,11,12,13,14,15,16,17-tetradecahydro-1H-cyclopenta[a]phenanthren-17-yl)-N,N-dimethylpentanamide], under 5.00.
As to `C[C@H](Oc1cncc(CO)c1)[C@H]1CC[C@H]2[C@@H]3CC=C4C[C@@H](O)CC[C@]4(C)[C@H]3CC[C@]12C` [Example 436, (3S,8S,9S,10R,13S,14S,17S)-17-((S)-1-((5-(hydroxymethyl)pyridin-3-yl)oxy)ethyl)-10,13-dim ethyl-2,3,4,7,8,9,10,11,12,13,14,15,16,17-tetradecahydro-1H-cyclopenta[a]phenanthren-3-ol], the pIC50 was 6.00 to 6.60.
The compound `C[C@H](Oc1ccccn1)[C@H]1CC[C@H]2[C@@H]3CC=C4C[C@@H](O)CC[C@]4(C)[C@H]3CC[C@]12C` [Example 381, (3S,8S,9S,10R,13S,14S,17S)-10,13-dimethyl-17-((S)-1-(pyridin-2-yloxy)ethyl)-2,3,4,7,8,9,10,11,12,13,14,15,16,17-tetradecahydro-1H-cyclopenta[a]phenanthren-3-ol] gave a pIC50 of 5.00 to 6.00.
On the same count and under the same terms, to `C[C@H](CCC(=O)N1CCC(OC(=O)N(C)C)CC1)[C@H]1CC[C@H]2[C@@H]3CC=C4C[C@@H](O)CC[C@]4(C)[C@H]3CC[C@]12C` [Example 418, 1-((R)-4-((3S,8S,9S,10R,13R,14S,17R)-3-hydroxy-10,13-dimethyl-2,3,4,7,8,9,10,11,12,13,14,15,16,17-tetradecahydro-1H-cyclopenta[a]phenanthren-17-yl)pentanoyl)piperidin-4-yl dimethylcarbamate] belongs 5.00 to 6.00.
Same read-out and setting: the figure for `C#CC1(OC)CCN(C(=O)CC[C@@H](C)[C@H]2CC[C@H]3[C@@H]4CC=C5C[C@@H](O)CC[C@]5(C)[C@H]4CC[C@]23C)CC1` [Example 330, (R)-1-(4-ethynyl-4-methoxypiperidin-1-yl)-4-((3S,8S,9S,10R,13R,14S,17R)-3-hydroxy-10,13-dimethyl-2,3,4,7,8,9,10,11,12,13,14,15,16,17-tetradecahydro-1H-cyclopenta[a]phenanthren-17-yl)pentan-1-one] is over 6.60; for `C[C@H](CCC(=O)N1CC[C@@H](Oc2ccncc2)C[C@@H]1C)[C@H]1CC[C@H]2[C@@H]3CC=C4C[C@@H](O)CC[C@]4(C)[C@H]3CC[C@]12C` [Example 586, (R)-4-((3S,8S,9S,10R,13R,14S,17R)-3-hydroxy-10,13-dimethyl-2,3,4,7,8,9,10,11,12,13,14,15,16,17-tetradecahydro-1H-cyclopenta[a]phenanthren-17-yl)-1-((2S,4R)-2-methyl-4-(pyridin-4-yloxy)piperidin-1-yl)pentan-1-one] it is over 6.60.
